target: CDK2 (human) (UniProt P24941); assay: Enzyme Assay

Ki, < 1000 nM:
O=c1[nH][nH]c2cc(NC3COCC(Nc4ccccn4)C3)ccc12 (stereo not given)
Cc1cc(Nc2cc(-c3ccccc3)[nH]n2)nc(Nc2ccc3c(=O)[nH][nH]c3c2)n1
O=c1[nH][nH]c2cc(OCCC(Nc3nccnn3)c3ccccc3)ccc12 (stereo not given)
O=c1[nH][nH]c2cc(Oc3cccc(Nc4n[nH]c5ccccc45)n3)ccc12
COCC(C)(C)c1cc(Nc2cc(C)[nH]n2)nc(Sc2ccc3c(=O)[nH][nH]c3c2)n1
O=c1[nH][nH]c2cc(OCC3CCCC(Nc4nccnn4)C3)ccc12 (stereo not given)
O=c1[nH][nH]c2cc(Nc3nc(Nc4cc(C5CC5)[nH]n4)cc(Oc4ccccc4)n3)ccc12
Cc1cc(Nc2cc(-c3cccc([N+](=O)[O-])c3)nc(Nc3ccc4c(=O)[nH][nH]c4c3)n2)n[nH]1
O=C(CCNc1ccc2c(=O)[nH][nH]c2c1)Nc1nccnn1
O=c1[nH][nH]c2cc(O)c(-c3nc(Nc4n[nH]c5c(F)cc(F)cc45)c4ccccc4n3)cc12
Cc1cc(Nc2nc(Sc3ccc4c(=O)[nH][nH]c4c3)nc3ccccc23)n[nH]1
Cc1nc(Nc2ccc3c(=O)[nH][nH]c3c2)nc(Nc2cc(C3CC3)[nH]n2)n1
O=c1[nH][nH]c2ccc(-c3nc4c(c(Nc5n[nH]c6ccc(F)cc56)n3)CN(Cc3ccccc3)CC4)c(C(F)(F)F)c12
CN(C)CCNC(=O)c1cc(Nc2cc(C3CC3)[nH]n2)nc(Sc2ccc3c(=O)[nH][nH]c3c2)n1
O=c1[nH][nH]c2ccc(-c3nc4c(c(Nc5n[nH]c6c(F)cc(F)cc56)n3)CCCC4)c(C(F)(F)F)c12
Cc1cc(Nc2cc(-c3cc4c(=O)[nH][nH]c4cc3C(F)(F)F)nc(N3CCNCC3)c2)n[nH]1
Cc1cnc(CC2CCCC2CCc2ccc3c(=O)[nH][nH]c3c2)s1 (stereo not given)
O=c1[nH][nH]c2cc(Nc3nc(Nc4cc(-c5ccco5)[nH]n4)cc(-c4ccccc4)n3)ccc12
O=c1[nH][nH]c2ccc(-c3nc4c(c(Nc5n[nH]c6ccccc56)n3)N(Cc3ccccc3)CCC4)c(C(F)(F)F)c12
O=C(CCOc1ccc2c(=O)[nH][nH]c2c1)Nc1ccccn1
Cc1cc(Nc2cc(-c3ccc(OCCCN(C)C)cc3)nc(Sc3ccc4c(=O)[nH][nH]c4c3)n2)n[nH]1
O=C(CCNc1ccccn1)Cc1ccc2c(=O)[nH][nH]c2c1
Cc1cc(Nc2nc(C(C)(C)c3ccc4c(=O)[nH][nH]c4c3)nc3c2CCCCC3)n[nH]1
O=c1[nH][nH]c2ccc(-c3nc(Nc4n[nH]c5ccccc45)c4cccnc4n3)c(C(F)(F)F)c12
CN1CCN(c2cc(Nc3cc(C4CC4)[nH]n3)nc(Sc3ccc4c(=O)[nH][nH]c4c3)n2)CC1
O=c1[nH][nH]c2ccc(-c3cnnc(Nc4cc(C5CCCC5)[nH]n4)n3)cc12
Cn1cnc(NCCC(=O)Oc2ccc3c(=O)[nH][nH]c3c2)c1
Cc1cc(Nc2cc(C3CC3)[nH]n2)nc(Sc2ccc3c(=O)[nH][nH]c3c2)n1
Cc1cc(Nc2cc(-c3ccco3)[nH]n2)nc(Nc2ccc3c(=O)[nH][nH]c3c2)n1
Cc1cnc(NC(=O)CCSc2ccc3c(=O)[nH][nH]c3c2)s1
O=c1[nH][nH]c2cc(C(F)(F)F)c(-c3nc(Nc4n[nH]c5ccccc45)nc(N4CCSCC4)n3)cc12
Cn1cnc(NCCC(Cc2ccccc2)Nc2ccc3c(=O)[nH][nH]c3c2)c1 (stereo not given)
O=C(CC(=O)Nc1nccnn1)Cc1ccc2c(=O)[nH][nH]c2c1
O=c1[nH][nH]c2cc(SCCC(Nc3ccccn3)c3ccccc3)ccc12 (stereo not given)
Cn1cnc(NC2COCC(Oc3ccc4c(=O)[nH][nH]c4c3)C2)c1 (stereo not given)
COCc1cc(Nc2cc(C)[nH]n2)nc(COc2ccc3[nH][nH]c(=O)c3c2)n1
CN(C)CCNC(=O)c1cc(Nc2n[nH]c3ccccc23)nc(Sc2ccc3c(=O)[nH][nH]c3c2)n1
O=c1[nH][nH]c2cc(Nc3cc(Nc4n[nH]c5ccccc45)ccn3)ccc12
Cc1cc(Nc2nc(Nc3ccc4c(=O)[nH][nH]c4c3)nc3cccc(C)c23)n[nH]1
CC(C)NC(=O)c1cc(Nc2nc(-c3ccc4[nH][nH]c(=O)c4c3)nc3ccccc23)n[nH]1
O=c1[nH][nH]c2ccc(C3COCC(Nc4cc(C5CC5)[nH]n4)C3)cc12 (stereo not given)
O=c1[nH][nH]c2cc(NC3CCCC(Nc4nccnn4)C3)ccc12 (stereo not given)
COc1ccc(-c2cc(Nc3cc(C)[nH]n3)nc(Sc3ccc4c(=O)[nH][nH]c4c3)n2)cc1
O=c1[nH][nH]c2ccc(-c3nc(Nc4cc(C5CCCC5)[nH]n4)c4ccccc4n3)cc12
O=c1[nH][nH]c2cc(SC3CCCC(Nc4ccccn4)C3)ccc12 (stereo not given)
O=c1[nH][nH]c2cc(C(F)(F)F)c(-c3cc(Nc4n[nH]c(C5CC5)n4)c4ccccc4n3)cc12
O=c1[nH][nH]c2cc(C3(C4CCCC(Nc5ccccn5)C4)CC3)ccc12 (stereo not given)
Cc1cc(Nc2cc(Cc3ccc4c(=O)[nH][nH]c4c3)nc3ccccc23)n[nH]1
CCc1cc(Nc2nc(Nc3ccc4c(=O)[nH][nH]c4c3)nc3ccccc23)n[nH]1
O=c1[nH][nH]c2cc(Nc3ncnc(Nc4cc(C5CC5)[nH]n4)n3)ccc12
Cc1cc(Nc2nc(Cc3ccc4c(=O)[nH][nH]c4c3)nc3c2CCN(Cc2ccccc2)C3)n[nH]1
Cc1cnc(NC2CCCC(Nc3ccc4c(=O)[nH][nH]c4c3)C2)s1 (stereo not given)
O=c1[nH][nH]c2cc(Nc3nc(Nc4cc(C5CCCC5)[nH]n4)c4ccccc4n3)ccc12
CCc1cc(Nc2cnnc(-c3ccc4[nH][nH]c(=O)c4c3)n2)n[nH]1
Cc1cnc(NC(=O)CCNc2ccc3c(=O)[nH][nH]c3c2)s1
NCCOc1cccc2c(Nc3n[nH]c4ccccc34)nc(-c3ccc4[nH][nH]c(=O)c4c3C(F)(F)F)nc12
O=c1[nH][nH]c2ccc(-c3nc(Nc4n[nH]c5c(F)cccc45)c4ccncc4n3)c(Cl)c12
O=c1[nH][nH]c2cc(COc3cc(Nc4n[nH]c5ccccc45)c4ccccc4n3)ccc12
O=c1[nH][nH]c2cc(SCC3CCCC3Nc3ccccn3)ccc12 (stereo not given)
O=c1[nH][nH]c2cc(NCCCNc3cc(C4CC4)[nH]n3)ccc12
O=c1[nH][nH]c2cc(SC(CCNc3cc(C4CC4)[nH]n3)Cc3ccccc3)ccc12 (stereo not given)
O=c1[nH][nH]c2cc(Sc3cccc(Nc4cc(C5CC5)[nH]n4)n3)ccc12
COCc1cc(Nc2n[nH]c3ccccc23)nc(-c2ccc3[nH][nH]c(=O)c3c2)n1
Cc1cc(Nc2cc(-c3ccco3)[nH]n2)nc(-c2ccc3[nH][nH]c(=O)c3c2)n1
Cc1cnc(NCCC(=O)Oc2ccc3c(=O)[nH][nH]c3c2)s1
O=c1[nH][nH]c2cc(OC3CCC(Nc4ccccn4)C3)ccc12 (stereo not given)
Cc1cc(Nc2cc(COc3ccc4c(=O)[nH][nH]c4c3)nc3c2CCCC3)n[nH]1
O=c1[nH][nH]c2cc(SC3CCCC(Nc4cc(C5CC5)[nH]n4)C3)ccc12 (stereo not given)
CN(C)CCOCc1cc(Nc2n[nH]c3ccccc23)nc(Sc2ccc3c(=O)[nH][nH]c3c2)n1
O=c1[nH][nH]c2cc(Sc3cccc(Nc4n[nH]c5ccccc45)n3)ccc12
Cn1cnc(NCCC(Cc2ccccc2)Cc2ccc3c(=O)[nH][nH]c3c2)c1 (stereo not given)
O=C(CC(=O)Nc1nccnn1)Nc1ccc2c(=O)[nH][nH]c2c1
O=C(CCNc1nccnn1)Nc1ccc2c(=O)[nH][nH]c2c1
O=c1[nH][nH]c2cc(NCC3CCCC3Nc3nccnn3)ccc12 (stereo not given)
O=C1Cc2nc(-c3ccc4[nH][nH]c(=O)c4c3C(F)(F)F)nc(Nc3n[nH]c4ccccc34)c2CN1
O=c1[nH][nH]c2cc([C@@H]3C[C@H]3c3nc(Nc4n[nH]c5ccc(F)cc45)c4ccccc4n3)ccc12
O=c1[nH][nH]c2cc(C(F)(F)F)c(-c3cc(Nc4n[nH]c5ccccc45)c4cccnc4n3)cc12
Cn1cnc(NCCONc2ccc3c(=O)[nH][nH]c3c2)c1
O=c1[nH][nH]c2ccc(-c3cnnc(Nc4cc(C5CC5)[nH]n4)c3)cc12
O=c1[nH][nH]c2cc(OC(CCNc3nccnn3)Cc3ccccc3)ccc12 (stereo not given)
O=c1[nH][nH]c2ccc(-c3nc(Nc4n[nH]c5cc(=O)n(-c6ccc(Oc7ccccc7)cc6)nc45)c4ccccc4n3)cc12
O=c1[nH][nH]c2ccc(-c3nnc(C4CC4)c(Nc4n[nH]c5ccccc45)n3)c(C(F)(F)F)c12
O=c1[nH][nH]c2cc(Oc3nc(Nc4cc(C5CC5)[nH]n4)cc(N4CCOCC4)n3)ccc12
O=c1[nH][nH]c2cc(Sc3nc(Nc4cc(C5CC5)[nH]n4)c4ccccc4n3)ccc12
Cc1cc(Nc2nc(Sc3ccc4c(=O)[nH][nH]c4c3)nc3cc(OCCCN(C)C)ccc23)n[nH]1

Reference: the Kinase Knowledgebase extract (Sharma et al. 2016)
